Laboratory results taken from patent US9974775B2, “Substituted imidazoles as N-type calcium channel blockers” (Janssen Pharmaceutica NV, priority 2013, dated 2018).
One block for each molecule: values may come before it.

Molecular target: human N-type Ca channel (Homo sapiens, UniProt Q00975)
Assay: Measurement of electrophysiological response (QPatch)
Conditions: for IC50: concentration range 0.3-10 μM
[1] = N Type IC50 Data Qpatch Pulse = 1, Pulse = 1
[2] = N Type IC50 Data Qpatch Pulse = 15, Pulse = 15
[3] = concentration range 0.01-0.3 μM

Sequence of human N-type Ca channel (Q00975 whole entry): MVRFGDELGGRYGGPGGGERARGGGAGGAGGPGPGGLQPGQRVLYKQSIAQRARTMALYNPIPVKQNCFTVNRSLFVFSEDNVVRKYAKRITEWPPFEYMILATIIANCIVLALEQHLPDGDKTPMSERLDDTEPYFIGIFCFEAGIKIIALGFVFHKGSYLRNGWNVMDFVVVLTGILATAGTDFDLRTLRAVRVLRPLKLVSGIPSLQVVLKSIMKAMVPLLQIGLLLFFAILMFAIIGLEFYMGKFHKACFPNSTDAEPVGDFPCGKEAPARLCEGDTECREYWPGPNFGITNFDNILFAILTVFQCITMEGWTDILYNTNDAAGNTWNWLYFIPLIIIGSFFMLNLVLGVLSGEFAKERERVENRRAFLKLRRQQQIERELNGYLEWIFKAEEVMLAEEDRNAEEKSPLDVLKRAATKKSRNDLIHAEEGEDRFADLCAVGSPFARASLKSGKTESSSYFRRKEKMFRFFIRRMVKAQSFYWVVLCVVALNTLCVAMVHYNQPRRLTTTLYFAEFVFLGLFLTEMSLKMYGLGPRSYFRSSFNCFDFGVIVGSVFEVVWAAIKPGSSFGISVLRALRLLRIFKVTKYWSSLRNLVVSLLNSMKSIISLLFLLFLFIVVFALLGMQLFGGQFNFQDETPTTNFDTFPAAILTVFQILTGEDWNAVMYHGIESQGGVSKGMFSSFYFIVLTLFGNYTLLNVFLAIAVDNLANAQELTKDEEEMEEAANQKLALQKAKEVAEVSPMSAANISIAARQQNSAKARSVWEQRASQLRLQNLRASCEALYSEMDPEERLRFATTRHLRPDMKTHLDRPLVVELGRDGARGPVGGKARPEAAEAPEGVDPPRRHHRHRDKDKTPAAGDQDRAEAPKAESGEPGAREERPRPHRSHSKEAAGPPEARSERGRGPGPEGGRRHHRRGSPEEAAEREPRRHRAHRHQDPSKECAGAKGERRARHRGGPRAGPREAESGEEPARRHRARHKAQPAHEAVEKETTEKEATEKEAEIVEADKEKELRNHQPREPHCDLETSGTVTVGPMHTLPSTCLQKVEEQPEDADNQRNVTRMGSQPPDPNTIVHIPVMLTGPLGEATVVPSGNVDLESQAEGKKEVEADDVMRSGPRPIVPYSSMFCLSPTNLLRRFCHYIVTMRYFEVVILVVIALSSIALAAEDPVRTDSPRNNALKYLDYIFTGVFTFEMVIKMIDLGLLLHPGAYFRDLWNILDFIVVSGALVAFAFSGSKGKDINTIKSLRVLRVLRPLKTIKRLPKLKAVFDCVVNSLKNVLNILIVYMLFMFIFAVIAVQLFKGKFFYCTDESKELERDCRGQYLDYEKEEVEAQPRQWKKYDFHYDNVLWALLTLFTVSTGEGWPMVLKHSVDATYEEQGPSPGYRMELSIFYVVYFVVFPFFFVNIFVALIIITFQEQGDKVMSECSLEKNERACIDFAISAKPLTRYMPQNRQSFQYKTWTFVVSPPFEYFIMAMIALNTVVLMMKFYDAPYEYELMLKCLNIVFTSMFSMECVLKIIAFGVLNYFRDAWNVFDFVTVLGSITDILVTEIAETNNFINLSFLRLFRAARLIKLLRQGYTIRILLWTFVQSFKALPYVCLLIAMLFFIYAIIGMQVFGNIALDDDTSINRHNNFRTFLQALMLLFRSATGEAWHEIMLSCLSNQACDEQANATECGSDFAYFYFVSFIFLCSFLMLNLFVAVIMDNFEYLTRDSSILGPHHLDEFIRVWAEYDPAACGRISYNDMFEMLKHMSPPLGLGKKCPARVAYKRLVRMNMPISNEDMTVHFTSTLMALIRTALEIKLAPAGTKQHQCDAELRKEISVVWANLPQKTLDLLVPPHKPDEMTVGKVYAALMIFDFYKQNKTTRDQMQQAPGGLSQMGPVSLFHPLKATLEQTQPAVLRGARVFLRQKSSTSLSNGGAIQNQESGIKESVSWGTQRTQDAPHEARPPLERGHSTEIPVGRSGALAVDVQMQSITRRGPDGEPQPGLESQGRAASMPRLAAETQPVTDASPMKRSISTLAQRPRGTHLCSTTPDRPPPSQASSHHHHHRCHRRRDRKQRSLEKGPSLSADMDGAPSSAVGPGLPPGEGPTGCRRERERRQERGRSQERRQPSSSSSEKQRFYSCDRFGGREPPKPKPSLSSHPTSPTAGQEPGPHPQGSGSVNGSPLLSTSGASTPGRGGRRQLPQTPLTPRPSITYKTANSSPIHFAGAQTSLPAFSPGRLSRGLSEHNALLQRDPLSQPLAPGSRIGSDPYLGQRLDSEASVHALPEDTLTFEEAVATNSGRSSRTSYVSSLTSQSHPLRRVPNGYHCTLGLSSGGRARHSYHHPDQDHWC
Sequence of human N-type Ca channel (P54284 whole entry partner): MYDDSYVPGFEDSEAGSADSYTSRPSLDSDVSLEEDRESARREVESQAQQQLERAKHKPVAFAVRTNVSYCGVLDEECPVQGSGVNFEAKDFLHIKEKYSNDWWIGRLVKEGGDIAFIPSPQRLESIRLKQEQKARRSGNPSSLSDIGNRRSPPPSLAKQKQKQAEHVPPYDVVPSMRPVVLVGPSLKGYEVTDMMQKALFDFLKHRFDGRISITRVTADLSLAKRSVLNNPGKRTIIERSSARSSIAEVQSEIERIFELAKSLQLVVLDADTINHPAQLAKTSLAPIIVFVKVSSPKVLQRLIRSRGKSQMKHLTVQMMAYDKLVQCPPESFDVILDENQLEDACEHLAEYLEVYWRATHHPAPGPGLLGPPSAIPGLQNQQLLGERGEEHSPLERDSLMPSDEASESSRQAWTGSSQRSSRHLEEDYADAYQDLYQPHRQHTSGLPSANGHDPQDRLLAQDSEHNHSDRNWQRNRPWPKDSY
Sequence of human N-type Ca channel (P54289 25-956 partner limits assumed): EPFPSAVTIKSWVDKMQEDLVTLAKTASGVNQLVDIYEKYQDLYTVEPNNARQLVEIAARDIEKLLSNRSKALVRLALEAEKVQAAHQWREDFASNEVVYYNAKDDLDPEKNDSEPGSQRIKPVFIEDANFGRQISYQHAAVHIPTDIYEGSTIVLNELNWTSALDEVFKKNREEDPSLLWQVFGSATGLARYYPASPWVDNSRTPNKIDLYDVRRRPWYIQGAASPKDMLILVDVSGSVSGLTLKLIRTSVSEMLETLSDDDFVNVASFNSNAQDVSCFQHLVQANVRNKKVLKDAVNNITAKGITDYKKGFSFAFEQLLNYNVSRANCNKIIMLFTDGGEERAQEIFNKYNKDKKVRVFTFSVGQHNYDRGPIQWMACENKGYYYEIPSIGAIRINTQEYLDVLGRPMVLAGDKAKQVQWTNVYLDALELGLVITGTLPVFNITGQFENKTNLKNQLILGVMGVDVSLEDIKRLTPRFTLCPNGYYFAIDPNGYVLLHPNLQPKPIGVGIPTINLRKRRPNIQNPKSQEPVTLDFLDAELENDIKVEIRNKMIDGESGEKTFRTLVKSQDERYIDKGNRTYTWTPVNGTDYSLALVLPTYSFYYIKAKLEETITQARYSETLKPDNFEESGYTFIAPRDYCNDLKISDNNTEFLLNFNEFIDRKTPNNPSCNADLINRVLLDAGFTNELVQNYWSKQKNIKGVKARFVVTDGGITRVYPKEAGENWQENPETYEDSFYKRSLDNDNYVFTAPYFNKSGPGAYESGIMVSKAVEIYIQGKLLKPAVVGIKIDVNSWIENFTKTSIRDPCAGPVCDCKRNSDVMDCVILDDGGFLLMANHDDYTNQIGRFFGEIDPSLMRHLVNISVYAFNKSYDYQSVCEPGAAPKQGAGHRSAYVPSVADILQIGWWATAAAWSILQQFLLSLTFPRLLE
Sequence of human N-type Ca channel (P54289 957-1103 partner limits assumed): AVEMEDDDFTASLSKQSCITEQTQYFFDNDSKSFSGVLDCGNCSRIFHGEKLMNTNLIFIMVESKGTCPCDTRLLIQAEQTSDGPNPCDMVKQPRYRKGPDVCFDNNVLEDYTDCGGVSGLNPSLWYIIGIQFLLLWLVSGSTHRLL
Protocol: The recombinant cell line described above was used in the measurement of electrophysiological properties with QPatch (Sophion). […] Prior to the experiment, the flasks were moved to 30° C. and incubated for 48-72 hrs. On the day of assaying, cells were detached and harvested. The cell pellet was re-suspended in SMF4HEK (HyClone)/25 mM HEPS at 2-5 million/mL and placed on the QStirrer of the QPatch for 30-60 min prior to the start of the assay. […] Microtiter-Plate/Reference Buffer contained 140 mM TEA-Cl, 10 mM BaCl2, 0.8 mM MgCl2, 10 mM HEPES pH˜7.4 adjusted with TEA-OH/HCl, and ˜300 mOsm. Cells were transferred to a QPatch 48 plate and gigaseal was formed. The plate was perfused with intracellular and extracellular buffer. […] In brief, cells were depolarized from resting potential of −80 mV to +20 mV and current was recorded. Data was plotted as percent inhibition vs concentration of the compound and IC50 values were generated using Graphpad Prism non-linear regression analysis.

SMILES: COc1ccccc1-c1nc(C2CC(C)(C)OC(C)(C)C2)cn1-c1ccc(F)cc1 [Cpd 4, 1-(4-Fluorophenyl)-2-(2-methoxyphenyl)-4-(2,2,6,6-tetramethyltetrahydro-2H-pyran-4-yl)-1H-imidazole]
IC50 [1]: ≥ 10 µM

SMILES: COc1ccccc1-c1nc(C2CC(C)(C)OC(C)(C)C2)cn1-c1ccc(C)nc1 [Cpd 5, 5-[2-(2-Methoxyphenyl)-4-(2,2,6,6-tetramethyltetrahydro-2H-pyran-4-yl)-1H-imidazol-1-yl]-2-methylpyridine]
IC50 [2]: ≥ 10 µM

SMILES: COc1ccccc1-c1nc(C2CC(C)(C)OC(C)(C)C2)cn1-c1ccc(C)cn1 [Cpd 6, 2-[2-(2-Methoxyphenyl)-4-(2,2,6,6-tetramethyltetrahydro-2H-pyran-4-yl)-1H-imidazol-1-yl]-5-methylpyridine]
IC50 [1]: ≥ 10 µM
IC50 [2]: ≥ 10 µM

SMILES: COc1ncccc1-c1nc(C2CC(C)(C)OC(C)(C)C2)cn1Cc1cccc(Cl)c1 [Cpd 9, 3-(1-(3-chlorobenzyl)-4-(2,2,6,6-tetramethyltetrahydro-2H-pyran-4-yl)-1H-imidazol-2-yl)-2-methoxypyridine]
Qpatch Pulse = 1 (percent inhibition) (concentration range 0.01-1 μM): 46%
Qpatch Pulse = 15 (percent inhibition) (concentration range 0.01-1 μM): 37%

SMILES: COc1ncccc1-c1nc(C2CC(C)(C)OC(C)(C)C2)cn1-c1ccc(C#N)c(C)c1 [Cpd 15, 4-[2-(2-Methoxypyridin-3-yl)-4-(2,2,6,6-tetramethyltetrahydro-2H-pyran-4-yl)-1H-imidazol-1-yl]-2-methylbenzonitrile]
N Type IC50 Data Qpatch Pulse = 1 [3]: poor fit
N Type IC50 Data Qpatch Pulse = 15 [3]: poor fit

SMILES: COc1ncccc1-c1nc(C2CC(C)(C)OC(C)(C)C2)cn1-c1ccc(F)c(F)c1F [Cpd 16, 2-methoxy-3-(4-(2,2,6,6-tetramethyltetrahydro-2H-pyran-4-yl)-1-(2,3,4-trifluorophenyl)-1H-imidazol-2-yl)pyridine]
N Type IC50 Data Qpatch Pulse = 1 [3]: poor fit
N Type IC50 Data Qpatch Pulse = 15 [3]: poor fit

SMILES: COc1ccccc1-c1nc(C2CC(C)(C)OC(C)(C)C2)cn1-c1ccc(C#N)c(C)c1 [Cpd 21, 4-[2-(2-Methoxyphenyl)-4-(2,2,6,6-tetramethyltetrahydro-2H-pyran-4-yl)-1H-imidazol-1-yl]-2-methylbenzonitrile]
Qpatch Pulse = 15 (percent inhibition) (concentration range 0.01-1 μM): 39%

SMILES: COc1ccc(-n2cc(C3CC(C)(C)OC(C)(C)C3)nc2-c2cccnc2OC)cc1F [Cpd 23, 3-[1-(3-Fluoro-4-methoxyphenyl)-4-(2,2,6,6-tetramethyltetrahydro-2H-pyran-4-yl)-1H-imidazol-2-yl]-2-methoxypyridine]
Qpatch Pulse = 1 (percent inhibition) (concentration range 0.01-1 μM): 21%

SMILES: COc1cc(-n2cc(C3CC(C)(C)OC(C)(C)C3)nc2-c2cccnc2OC)ccc1F [Cpd 24, 3-[1-(4-Fluoro-3-methoxyphenyl)-4-(2,2,6,6-tetramethyltetrahydro-2H-pyran-4-yl)-1H-imidazol-2-yl]-2-methoxypyridine]
Qpatch Pulse = 1 (percent inhibition) (concentration range 0.01-1 μM): 29%

SMILES: COc1ncccc1-c1nc(C2CC(C)(C)OC(C)(C)C2)cn1Cc1ccccc1Cl [Cpd 27, 3-[1-(2-Chlorobenzyl)-4-(2,2,6,6-tetramethyltetrahydro-2H-pyran-4-yl)-1H-imidazol-2-yl]-2-methoxypyridine]
N Type IC50 Data Qpatch Pulse = 1 [3]: poor fit

SMILES: COc1ncccc1-c1nc(C2CC(C)(C)OC(C)(C)C2)cn1Cc1ccc(Cl)cc1 [Cpd 28, 3-[1-(4-Chlorobenzyl)-4-(2,2,6,6-tetramethyltetrahydro-2H-pyran-4-yl)-1H-imidazol-2-yl]-2-methoxypyridine]
N Type IC50 Data Qpatch Pulse = 1 [3]: poor fit
N Type IC50 Data Qpatch Pulse = 15 [3]: poor fit

SMILES: COc1ncccc1-c1nc(C2CC(C)(C)OC(C)(C)C2)cn1-c1ccc(C#N)c(C(F)(F)F)c1 [Cpd 29, 4-(2-(2-methoxypyridin-3-yl)-4-(2,2,6,6-tetramethyltetrahydro-2H-pyran-4-yl)-1H-imidazol-1-yl)-2-(trifluoromethyl)benzonitrile]
N Type IC50 Data Qpatch Pulse = 1 [3]: poor fit
N Type IC50 Data Qpatch Pulse = 15 [3]: poor fit

SMILES: COc1ncccc1-c1nc(C2CC(C)(C)OC(C)(C)C2)cn1-c1cccc(F)c1F [Cpd 31, 3-(1-(2,3-difluorophenyl)-4-(2,2,6,6-tetramethyltetrahydro-2H-pyran-4-yl)-1H-imidazol-2-yl)-2-methoxypyridine]
N Type IC50 Data Qpatch Pulse = 15 [3]: poor fit

SMILES: COc1cc(-n2cc(C3CC(C)(C)OC(C)(C)C3)nc2-c2ccccc2OC)ccc1C#N [Cpd 34, 2-Methoxy-4-[2-(2-methoxyphenyl)-4-(2,2,6,6-tetramethyltetrahydro-2H-pyran-4-yl)-1H-imidazol-1-yl]benzonitrile]
Qpatch Pulse = 1 (percent inhibition) (concentration range 0.01-1 μM): 38%

SMILES: COc1ncccc1-c1nc(C2CC(C)(C)OC(C)(C)C2)cn1-c1ccc(F)c(Cl)c1 [Cpd 46, 3-[1-(3-Chloro-4-fluorophenyl)-4-(2,2,6,6-tetramethyltetrahydro-2H-pyran-4-yl)-1H-imidazol-2-yl]-2-methoxypyridine]
IC50 [1]: ≥ 10 µM

SMILES: COc1ncccc1-c1nc(C2CC(C)(C)OC(C)(C)C2)cn1-c1ccc(C(F)(F)F)nc1 [Cpd 54, 2-Methoxy-3-{4-(2,2,6,6-tetramethyltetrahydro-2H-pyran-4-yl)-1-[6-(trifluoromethyl)pyridin-3-yl]-1H-imidazol-2-yl}pyridine]
N Type IC50 Data Qpatch Pulse = 1 (concentration range 0.01-1 μM): Poor fit
N Type IC50 Data Qpatch Pulse = 15 (concentration range 0.01-1 μM): Poor fit

SMILES: CC1(C)CC(c2cn(-c3ccc(Cl)cc3)c(CC3CC3)n2)CC(C)(C)O1 [Cpd 55, 1-(4-Chlorophenyl)-2-(cyclopropylmethyl)-4-(2,2,6,6-tetramethyltetrahydro-2H-pyran-4-yl)-1H-imidazole]
Qpatch Pulse = 1 (percent inhibition) (concentration range 0.01-1 μM): 48%

SMILES: CC1(C)CC(c2cn(-c3ccc(C(F)(F)F)nc3)c(CC3CC3)n2)CC(C)(C)O1 [Cpd 59, 5-[2-(Cyclopropylmethyl)-4-(2,2,6,6-tetramethyltetrahydro-2H-pyran-4-yl)-1H-imidazol-1-yl]-2-(trifluoromethyl)pyridine]
N Type IC50 Data Qpatch Pulse = 1 [3]: poor fit
N Type IC50 Data Qpatch Pulse = 15 [3]: poor fit

SMILES: CCOc1nccnc1-c1nc(C2CC(C)(C)OC(C)(C)C2)cn1-c1ccc(Cl)cc1 [Cpd 60, 2-[1-(4-Chlorophenyl)-4-(2,2,6,6-tetramethyltetrahydro-2H-pyran-4-yl)-1H-imidazol-2-yl]-3-ethoxypyrazine]
N Type IC50 Data Qpatch Pulse = 15 [3]: poor fit

SMILES: COc1ccccc1-c1nc(C2CC(C)(C)OC(C)(C)C2)cn1-c1c(F)cc(C#N)cc1F [Cpd 83, 3,5-difluoro-4-(2-(2-methoxyphenyl)-4-(2,2,6,6-tetramethyltetrahydro-2H-pyran-4-yl)-1H-imidazol-1-yl)benzonitrile]
N Type IC50 Data Qpatch Pulse = 1 [3]: poor fit
N Type IC50 Data Qpatch Pulse = 15 [3]: poor fit

The remaining lines, values ahead:

IC50 [1]: ≥ 10 µM
SMILES: COc1cnccc1-c1nc(C2CC(C)(C)OC(C)(C)C2)cn1-c1ccc(Cl)cc1 [Cpd 66, 4-(1-(4-chlorophenyl)-4-(2,2,6,6-tetramethyltetrahydro-2H-pyran-4-yl)-1H-imidazol-2-yl)-3-methoxypyridine]

IC50 [1]: ≥ 10 µM
SMILES: COc1ccncc1-c1nc(C2CC(C)(C)OC(C)(C)C2)cn1-c1ccc(Cl)cc1 [Cpd 68, 3-(1-(4-chlorophenyl)-4-(2,2,6,6-tetramethyltetrahydro-2H-pyran-4-yl)-1H-imidazol-2-yl)-4-methoxypyridine]

N Type IC50 Data Qpatch Pulse = 15 (concentration range 0.01-1 μM): poor fit
SMILES: COc1ncccc1-c1nc(C2CC(C)(C)OC(C)(C)C2)cn1-c1cc(F)ccc1F [Cpd 71, 3-(1-(2,5-difluorophenyl)-4-(2,2,6,6-tetramethyltetrahydro-2H-pyran-4-yl)-1H-imidazol-2-yl)-2-methoxypyridine]

N Type IC50 Data Qpatch Pulse = 1 (concentration range 0.01-1 μM): poor fit
N Type IC50 Data Qpatch Pulse = 15 (concentration range 0.01-1 μM): poor fit
SMILES: COc1ncccc1-c1nc(C2CC(C)(C)OC(C)(C)C2)cn1-c1cc(F)cc(F)c1 [Cpd 72, 3-(1-(3,5-difluorophenyl)-4-(2,2,6,6-tetramethyltetrahydro-2H-pyran-4-yl)-1H-imidazol-2-yl)-2-methoxypyridine]

N Type IC50 Data Qpatch Pulse = 1 (concentration range 0.01-1 μM): poor fit
N Type IC50 Data Qpatch Pulse = 15 (concentration range 0.01-1 μM): poor fit
SMILES: COc1ncccc1-c1nc(C2CC(C)(C)OC(C)(C)C2)cn1-c1cc(F)cc(C#N)c1 [Cpd 73, 3-fluoro-5-(2-(2-methoxypyridin-3-yl)-4-(2,2,6,6-tetramethyltetrahydro-2H-pyran-4-yl)-1H-imidazol-1-yl)benzonitrile]

Qpatch Pulse = 1 (percent inhibition) (concentration range 0.01-1 μM): 58%
SMILES: COc1ncccc1-c1nc(C2CC(C)(C)OC(C)(C)C2)cn1-c1ccc(C#N)c(Cl)c1 [Cpd 78, 2-Chloro-4-[2-(2-methoxypyridin-3-yl)-4-(2,2,6,6-tetramethyltetrahydro-2H-pyran-4-yl)-1H-imidazol-1-yl]benzonitrile]

N Type IC50 Data Qpatch Pulse = 1 [3]: poor fit
N Type IC50 Data Qpatch Pulse = 15 [3]: poor fit
SMILES: COc1ncccc1-c1nc(C2CC(C)(C)OC(C)(C)C2)cn1-c1cc(F)c(C#N)c(F)c1 [Cpd 82, 2,6-difluoro-4-(2-(2-methoxypyridin-3-yl)-4-(2,2,6,6-tetramethyltetrahydro-2H-pyran-4-yl)-1H-imidazol-1-yl)benzonitrile]

Qpatch Pulse = 1 (percent inhibition) (concentration range 0.01-1 μM): 39%
SMILES: COc1ncccc1-c1nc(C2CC(C)(C)OC(C)(C)C2)cn1-c1ccc(Cl)c(C#N)c1 [Cpd 84, 2-Chloro-5-[2-(2-methoxypyridin-3-yl)-4-(2,2,6,6-tetramethyltetrahydro-2H-pyran-4-yl)-1H-imidazol-1-yl]benzonitrile]

Qpatch Pulse = 1 (percent inhibition) (concentration range 0.01-1 μM): 45%
SMILES: COc1ccc(-n2cc(C3CC(C)(C)OC(C)(C)C3)nc2-c2cccnc2OC)cc1C#N [Cpd 85, 2-Methoxy-5-[2-(2-methoxypyridin-3-yl)-4-(2,2,6,6-tetramethyltetrahydro-2H-pyran-4-yl)-1H-imidazol-1-yl]benzonitrile]

Qpatch Pulse = 1 (percent inhibition) (concentration range 0.01-1 μM): 28%
SMILES: COc1ncncc1-c1nc(C2CC(C)(C)OC(C)(C)C2)cn1-c1ccc(C#N)cc1 [Cpd 86, 4-[2-(4-Methoxypyrimidin-5-yl)-4-(2,2,6,6-tetramethyltetrahydro-2H-pyran-4-yl)-1H-imidazol-1-yl]benzonitrile]

N Type IC50 Data Qpatch Pulse = 1 [3]: poor fit
N Type IC50 Data Qpatch Pulse = 15 [3]: poor fit
SMILES: COc1nccnc1-c1nc(C2CC(C)(C)OC(C)(C)C2)cn1-c1ccc(C#N)cc1 [Cpd 87, 4-[2-(3-Methoxypyrazin-2-yl)-4-(2,2,6,6-tetramethyltetrahydro-2H-pyran-4-yl)-1H-imidazol-1-yl]benzonitrile]
